Activity calls are given as the source filed them. No cut-off for these calls is given here.
Columns and labels:
[1] = molecular target: Replicase polyprotein 1ab (Severe acute respiratory syndrome coronavirus 2) (UniProt P0DTD1); test: Inhibition of recombinant SARS-CoV-2 main protease expressed in Escherichia coli BL21 DE3 expression cells using MCA-AVLQSGFR-Lys(Dnp)-Lys-NH2 as substrate at 10 uM incubated for 10 to 15 mins followed by substrate addition by FRET assay relative to control; conditions: time 10-15 min
[2] = molecular target: T1, Replicase polyprotein 1ab (Severe acute respiratory syndrome coronavirus 2, UniProt P0DTD1); test: Inhibition of recombinant SARS-CoV-2 main protease expressed in Escherichia coli BL21 DE3 expression cells using MCA-AVLQSGFR-Lys(Dnp)-Lys-NH2 as substrate incubated for 10 to 15 mins followed by substrate addition by FRET assay
[3] = n-Octanol/water partition coefficient, logP of the compound incubated for 12 hrs by HPLC analysis; format: physicochemical
[4] = molecular target: T1, Replicase polyprotein 1ab; test: Non-covalent inhibition of SARS-CoV-2 main protease incubated for 50 mins followed by substrate addition by FRET assay
[5] = test system: SARS-CoV-2; test: Antiviral activity against wild type SARS-CoV-2 infected in human HeLa cells expressing ACE2 assessed as reduction in viral spike protein level preincubated with cells for 2 hrs followed by viral infection for 1 hr and measured after 24 hrs by RT-qPCR analysis; format: functional, organism-based; conditions: Severe acute respiratory syndrome coronavirus 2, HeLa
[6] = test system: SARS-CoV-2; test: Antiviral activity against wild type SARS-CoV-2 infected in human HeLa cells expressing ACE2 assessed as reduction in nucleocapsid protein mRNA level preincubated with cells for 2 hrs followed by viral infection for 1 hr and measured after 24 hrs by RT-qPCR analysis; format: functional, organism-based; conditions: Severe acute respiratory syndrome coronavirus 2, HeLa
[7] = molecular target: T1, Replicase polyprotein 1ab; test: Non-covalent inhibition of SARS-CoV-2 main protease incubated for 30 mins followed by substrate addition by FRET assay
[8] = molecular target: T1, Replicase polyprotein 1ab; test: Binding affinity to recombinant SARS-CoV-2 main protease expressed in Escherichia coli BL21 DE3 expression cells assessed as dissociation constant measured for 60 secs by SPR analysis
[9] = Solubility of the compound in water incubated for 24 hrs by HPLC analysis; format: physicochemical
[10] = test system: SARS-CoV-2; test: Antiviral activity against wild type SARS-CoV-2 infected in human HeLa cells expressing ACE2 assessed as reduction in nucleocapsid protein level at 10 uM preincubated with cells for 2 hrs followed by viral infection for 1 hr and measured after 24 hrs by Western blot analysis; format: functional, organism-based; conditions: Severe acute respiratory syndrome coronavirus 2, time 27.0 hrs
[11] = Stability of compound in stimulated intestinal fluid assessed as parent compound remaining measured upto 24 hrs by HPLC analysis; format: ADME; conditions: simulated intestinal fluid, read-out: Stability
[12] = Stability of compound in stimulated gastric fluid assessed as parent compound remaining measured upto 24 hrs by HPLC analysis; format: ADME; conditions: simulated gastric fluid, read-out: Stability
[13] = test system: SARS-CoV-2; test: Antiviral activity against SARS-CoV-2 infected in African green monkey Vero E6 cells assessed as reduction in viral plaque number pre-infected with virus followed by cell addition for 1 hr and measured after 24 hrs by plaque assay; format: functional, organism-based; conditions: Severe acute respiratory syndrome coronavirus 2
[14] = test system: SARS-CoV-2; test: Antiviral activity against wild type SARS-CoV-2 infected in human HeLa cells expressing ACE2 assessed as reduction in viral spike protein level at 10 uM preincubated with cells for 2 hrs followed by viral infection for 1 hr and measured after 24 hrs by Western blot analysis; format: functional, organism-based; conditions: Severe acute respiratory syndrome coronavirus 2, time 27.0 hrs
[15] = molecular target: T1, Replicase polyprotein 1ab; test: Non-covalent inhibition of SARS-CoV-2 main protease incubated for 10 mins followed by substrate addition by FRET assay
[16] = test system: SARS-CoV-2; test: Antiviral activity against SARS-CoV-2 infected in African green monkey Vero E6 cells assessed as reduction in viral plaque size pre-infected with virus followed by cell addition for 1 hr and measured after 24 hrs by plaque assay; format: functional, organism-based; conditions: Severe acute respiratory syndrome coronavirus 2
[17] = test system: SARS-CoV-2; test: Antiviral activity against wild type SARS-CoV-2 infected in human Calu-3 assessed as reduction in nucleocapsid protein level at 10 uM preincubated with cells for 2 hrs followed by viral infection for 1 hr and measured after 24 hrs by Western blot analysis; format: functional, organism-based; conditions: Severe acute respiratory syndrome coronavirus 2, time 27.0 hrs

Structure (SMILES): CCOC(=O)CCCCCCCCCN1C(=O)/C(=C2/C(=O)Nc3ccccc32)c2cc(Br)ccc21
- inhibition [1]: 21.2%

Structure (SMILES): CN1C(=O)C2(CC=CCC23C(=O)Nc2ccc(Br)cc23)c2ccccc21 (stereo unspecified)
- inhibition [1]: 6%

Structure (SMILES): O=C1Nc2ccccc2/C1=C1\C(=O)N(CCBr)c2ccccc21
- inhibition [1]: 97.4%

Structure (SMILES): O=C1Nc2ccccc2/C1=C1\C(=O)Nc2ccccc21 [ISOINDIGO]
- inhibition [1]: 85.3%
- IC50 [2]: 1200 nM

Structure (SMILES): CN1C(=O)/C(=C2/C(=O)N(CCN)c3ccccc32)c2cc(Br)ccc21.Cl
- logP at 12 h [3]: 0.59
- IC50 [4]: 1490 nM
- EC50 [5]: 1760 nM
- EC50 [6]: 2030 nM
- IC50 [7]: 1520 nM
- Kd [8]: 1270 nM
- solubility at 24 h [9]: 3.81 mg/mL
- Activity [10]: Active
- remaining at 24 h [11]: 78%
- inhibition [1]: 85.8%
- remaining at 24 h [12]: 95%
- Activity [13]: Active
- Activity [14]: Active
- IC50 [15]: 1960 nM
- IC50 [2]: 1090 nM
- Activity [16]: Active

Structure (SMILES): O=C(O)CCCCCN1C(=O)/C(=C2/C(=O)Nc3ccccc32)c2ccccc21
- inhibition [1]: 59.8%

Structure (SMILES): CN1C(=O)/C(=C2/C(=O)N(CCNC(=O)OC(C)(C)C)c3ccccc32)c2ccccc21
- inhibition [1]: 52.6%

Structure (SMILES): O=C(O)CCCCCCCN1C(=O)/C(=C2/C(=O)Nc3ccccc32)c2ccccc21
- inhibition [1]: 73.8%

Structure (SMILES): CN1C(=O)/C(=C2/C(=O)Nc3ccccc32)c2cc([N+](=O)[O-])ccc21
- Activity [17]: Active
- inhibition [1]: 32.8%

Structure (SMILES): COc1ccc2c(c1)/C(=C1\C(=O)N(C)c3ccccc31)C(=O)N2
- inhibition [1]: 70.7%

Structure (SMILES): O=C(O)CCCCCCCCCN1C(=O)/C(=C2/C(=O)Nc3ccccc32)c2cc(Br)ccc21
- inhibition [1]: 76.8%

Structure (SMILES): O=C(O)CCCCCCCN1C(=O)/C(=C2/C(=O)Nc3ccccc32)c2cc(O)ccc21
- inhibition [1]: 63.7%

Structure (SMILES): CN1CCN(CCN2C(=O)/C(=C3/C(=O)Nc4ccccc43)c3ccccc32)CC1
- inhibition [1]: 91.3%

Structure (SMILES): O=C(O)CCCCCCCCCCCN1C(=O)/C(=C2/C(=O)Nc3ccccc32)c2ccccc21
- inhibition [1]: 72.9%

Structure (SMILES): CN1C(=O)/C(=C2/C(=O)N(CCN3CCCC3)c3ccccc32)c2ccccc21.Cl
- logP at 12 h [3]: 0.7
- Kd [8]: 700 nM
- solubility at 24 h [9]: 17.3 mg/mL
- Activity [10]: inactive
- remaining at 24 h [11]: 85.3%
- inhibition [1]: 86.5%
- remaining at 24 h [12]: 95.2%
- Activity [14]: inactive
- IC50 [2]: 1150 nM

Structure (SMILES): COc1ccc2c(c1)/C(=C1\C(=O)Nc3ccccc31)C(=O)N2C
- inhibition [1]: 91.4%

From ChEMBL document CHEMBL5550155, “Discovery of meisoindigo derivatives as noncovalent and orally available Mpro inhibitors: their therapeutic implications in the treatment of COVID-19” (Eur J Med Chem, 2024)
